In patent publication US10556888B2, “Pyrazole compounds or salts thereof, preparation methods therefor, herbicidal compositions and use thereof” (QINGDAO KINGAGROOT CHEMICAL COMPOUNDS CO., LTD, priority 2015, dated 2020):

How the values were obtained:
[1] = tested on: Monocotyledonous and dicotyledonous weed; assay: Post-emergence test experiment, weed control effect (Table 2); assay type: in vivo; parameters: key to weed control effect, Setaria viridis (level) / weed control effect, Rorippa indica (level) / weed control effect, Abutilon theophrasti (level) / weed control effect, Echinochloa crus-galli (level) / weed control effect, Digitaria sanguinalis (level): Level 10: completely dead; Level 9: above 90% growth inhibition rate; Level 8: above 80% growth inhibition rate; Level 7: above 70% growth inhibition rate; Level 6: above 60% growth inhibition rate; Level 5: above 50% growth inhibition rate; Level 4: above 30% growth inhibition rate; Level 3: above 20% growth inhibition rate; Level 2: above 10% growth inhibition rate; Level 1: above 1-10% growth inhibition rate; Level 0: no effect; conditions: 3 weeks after spraying, greenhouse
Method in brief: (§1)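 Compounds, dissolved in acetone, mixed with Tween 80 and diluted in water, were sprayed post-emergence onto greenhouse-grown weeds and crops at the 2-3 leaf stage (2-3 weeks post-sowing). Plants then grown 3 more weeks in the greenhouse before evaluation.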

[2] = tested on: main crop (wheat, corn, rice, soybean, cotton, oilseed, millet and sorghum); assay: Post-emergence test experiment, main crops (Table 2); assay type: in vivo; parameters: key: Level 10: completely dead; Level 9: above 90% growth inhibition rate; Level 8: above 80% growth inhibition rate; Level 7: above 70% growth inhibition rate; Level 6: above 60% growth inhibition rate; Level 5: above 50% growth inhibition rate; Level 4: above 30% growth inhibition rate; Level 3: above 20% growth inhibition rate; Level 2: above 10% growth inhibition rate; Level 1: above 1-10% growth inhibition rate; Level 0: no effect; conditions: 3 weeks after spraying, greenhouse
Method in brief: as §1

Structure (SMILES) | weed control effect, Abutilon theophrasti (level) ([1]; 60 g/ha) | weed control effect, Bidens pilosa (level) ([1]; 60 g/ha) | weed control effect, Digitaria sanguinalis (level) ([1]; 60 g/ha) | weed control effect, Echinochloa crus-galli (level) ([1]; 60 g/ha) | weed control effect, Rorippa indica (level) ([1]; 60 g/ha) | weed control effect, Setaria viridis (level) ([1]; 60 g/ha) | effect on crop, corn (level) ([2]; 60 g/ha) | effect on crop, rice (level) ([2]; 60 g/ha) | effect on crop, wheat (level) ([2]; 60 g/ha) | weed control effect, Abutilon theophrasti (level) ([1]; 30 g/ha) | weed control effect, Bidens pilosa (level) ([1]; 30 g/ha) | weed control effect, Digitaria sanguinalis (level) ([1]; 30 g/ha) | weed control effect, Echinochloa crus-galli (level) ([1]; 30 g/ha) | weed control effect, Rorippa indica (level) ([1]; 30 g/ha) | weed control effect, Setaria viridis (level) ([1]; 30 g/ha) | effect on crop, corn (level) ([2]; 30 g/ha) | effect on crop, rice (level) ([2]; 30 g/ha) | effect on crop, wheat (level) ([2]; 30 g/ha) | other results
CC=CCOCc1c(S(C)(=O)=O)ccc(C(=O)c2c(C)nn(C)c2OC(=O)c2cn(C)nc2C)c1Cl [Compound 38] | 10 | 8 (Level 8: above 80% growth inhibition rate) | 8 (Level 8: above 80% growth inhibition rate) | 8 (Level 8: above 80% growth inhibition rate) | 10 | 10 | 0 | 1 (Level 1: above 1-10% growth inhibition rate) | 0 | – | – | – | – | – | – | – | – | – | –
Cn1cc(C(=O)Oc2c(C(=O)c3ccc(S(C)(=O)=O)c(COCC(F)(F)C(F)F)c3Cl)c(C3CC3)nn2C)cn1 [Compound 71] | – | – | – | – | – | – | – | – | – | 6 (Level 6: above 60% growth inhibition rate) | 8 (Level 8: above 80% growth inhibition rate) | 7 (Level 7: above 70% growth inhibition rate) | 8 (Level 8: above 80% growth inhibition rate) | 10 | 5 (Level 5: above 50% growth inhibition rate) | 0 | 3 (Level 3: above 20% growth inhibition rate) | 0 | –
Cc1cnn(Cc2c(S(C)(=O)=O)ccc(C(=O)c3c(C4CC4)nn(C)c3OC(=O)c3cn(C)nc3C)c2Cl)c1 [Compound 12] | – | – | – | – | – | – | – | – | – | – | – | – | – | – | – | – | – | – | weed control effect, Abutilon theophrasti (level) ([1]; 120 g/ha): 6 (Level 6: above 60% growth inhibition rate); weed control effect, Bidens pilosa (level) ([1]; 120 g/ha): 6 (Level 6: above 60% growth inhibition rate); weed control effect, Digitaria sanguinalis (level) ([1]; 120 g/ha): 0; weed control effect, Echinochloa crus-galli (level) ([1]; 120 g/ha): 10; weed control effect, Rorippa indica (level) ([1]; 120 g/ha): 4 (Level 4: above 30% growth inhibition rate); weed control effect, Setaria viridis (level) ([1]; 120 g/ha): 1 (Level 1: above 1-10% growth inhibition rate); effect on crop, corn (level) ([2]; 120 g/ha): 0; effect on crop, rice (level) ([2]; 120 g/ha): 0; effect on crop, wheat (level) ([2]; 120 g/ha): 0
Cc1nn(C)cc1C(=O)Oc1c(C(=O)c2ccc(S(C)(=O)=O)c(Cn3cccn3)c2Cl)c(C2CC2)nn1C [Compound 13] | 10 | 8 (Level 8: above 80% growth inhibition rate) | 10 | 10 | 10 | 7 (Level 7: above 70% growth inhibition rate) | 0 | 1 (Level 1: above 1-10% growth inhibition rate) | 1 (Level 1: above 1-10% growth inhibition rate) | – | – | – | – | – | – | – | – | – | –
COCCCOCc1c(S(C)(=O)=O)ccc(C(=O)c2c(C)nn(C)c2OC(=O)c2cn(C)nc2C)c1Cl [Compound 37] | 10 | 8 (Level 8: above 80% growth inhibition rate) | 10 | 9 (Level 9: above 90% growth inhibition rate) | 10 | 5 (Level 5: above 50% growth inhibition rate) | 0 | 1 (Level 1: above 1-10% growth inhibition rate) | 0 | – | – | – | – | – | – | – | – | – | –
CCc1nn(C)c(OC(=O)c2cn(C)nc2C)c1C(=O)c1ccc(S(C)(=O)=O)c(COCC(F)(F)F)c1Cl [Compound 32] | – | – | – | – | – | – | – | – | – | 7 (Level 7: above 70% growth inhibition rate) | 7 (Level 7: above 70% growth inhibition rate) | 10 | 10 | 5 (Level 5: above 50% growth inhibition rate) | 10 | 1 (Level 1: above 1-10% growth inhibition rate) | 5 (Level 5: above 50% growth inhibition rate) | 0 | –
Cc1nn(C)c(OC(=O)c2cnn(C)c2)c1C(=O)c1ccc(S(C)(=O)=O)c(COCC(F)F)c1Cl [Compound 64] | – | – | – | – | – | – | – | – | – | 5 (Level 5: above 50% growth inhibition rate) | 5 (Level 5: above 50% growth inhibition rate) | 9 (Level 9: above 90% growth inhibition rate) | 10 | 10 | 10 | 2 (Level 2: above 10% growth inhibition rate) | 3 (Level 3: above 20% growth inhibition rate) | 0 | –
CC=CCOCc1c(S(C)(=O)=O)ccc(C(=O)c2cnn(CC)c2OC(=O)c2cnn(C)c2)c1Cl [Compound 88] | – | – | – | – | – | – | – | – | – | 6 (Level 6: above 60% growth inhibition rate) | 7 (Level 7: above 70% growth inhibition rate) | 8 (Level 8: above 80% growth inhibition rate) | 7 (Level 7: above 70% growth inhibition rate) | 10 | 8 (Level 8: above 80% growth inhibition rate) | 0 | 3 (Level 3: above 20% growth inhibition rate) | 0 | –
Cc1nn(C)cc1C(=O)Oc1c(C(=O)c2ccc(S(C)(=O)=O)c(Cn3cccn3)c2C)cnn1C [Compound 77] | – | – | – | – | – | – | – | – | – | 7 (Level 7: above 70% growth inhibition rate) | 7 (Level 7: above 70% growth inhibition rate) | 7 (Level 7: above 70% growth inhibition rate) | 10 | 10 | 10 | 1 (Level 1: above 1-10% growth inhibition rate) | 3 (Level 3: above 20% growth inhibition rate) | 0 | –
CCCCOCc1c(S(C)(=O)=O)ccc(C(=O)c2c(C)nn(C)c2OC(=O)c2cn(C)nc2C)c1Cl [Compound 34] | 10 | 8 (Level 8: above 80% growth inhibition rate) | 10 | 10 | 10 | 8 (Level 8: above 80% growth inhibition rate) | 0 | 1 (Level 1: above 1-10% growth inhibition rate) | 0 | – | – | – | – | – | – | – | – | – | –
CCOc1c(C(=O)Oc2c(C(=O)c3ccc(S(C)(=O)=O)c(Cn4cc(Cl)cn4)c3C)c(C)nn2CC)cnn1C [Compound 82] | – | – | – | – | – | – | – | – | – | – | – | – | – | – | – | – | – | – | weed control effect, Abutilon theophrasti (level) ([1]; 120 g/ha): 6 (Level 6: above 60% growth inhibition rate); weed control effect, Bidens pilosa (level) ([1]; 120 g/ha): 6 (Level 6: above 60% growth inhibition rate); weed control effect, Digitaria sanguinalis (level) ([1]; 120 g/ha): 1 (Level 1: above 1-10% growth inhibition rate); weed control effect, Echinochloa crus-galli (level) ([1]; 120 g/ha): 10; weed control effect, Rorippa indica (level) ([1]; 120 g/ha): 4 (Level 4: above 30% growth inhibition rate); weed control effect, Setaria viridis (level) ([1]; 120 g/ha): 3 (Level 3: above 20% growth inhibition rate); effect on crop, corn (level) ([2]; 120 g/ha): 0; effect on crop, rice (level) ([2]; 120 g/ha): 0; effect on crop, wheat (level) ([2]; 120 g/ha): 0
Cc1ccn(Cc2c(S(C)(=O)=O)ccc(C(=O)c3c(C4CC4)nn(C)c3OC(=O)c3cn(C)nc3C)c2Cl)n1 [Compound 09] | – | – | – | – | – | – | – | – | – | – | – | – | – | – | – | – | – | – | weed control effect, Abutilon theophrasti (level) ([1]; 120 g/ha): 7 (Level 7: above 70% growth inhibition rate); weed control effect, Bidens pilosa (level) ([1]; 120 g/ha): 9 (Level 9: above 90% growth inhibition rate); weed control effect, Digitaria sanguinalis (level) ([1]; 120 g/ha): 2 (Level 2: above 10% growth inhibition rate); weed control effect, Echinochloa crus-galli (level) ([1]; 120 g/ha): 9 (Level 9: above 90% growth inhibition rate); weed control effect, Rorippa indica (level) ([1]; 120 g/ha): 10; weed control effect, Setaria viridis (level) ([1]; 120 g/ha): 6 (Level 6: above 60% growth inhibition rate); effect on crop, corn (level) ([2]; 120 g/ha): 0; effect on crop, rice (level) ([2]; 120 g/ha): 1 (Level 1: above 1-10% growth inhibition rate); effect on crop, wheat (level) ([2]; 120 g/ha): 0
CCOCc1c(S(C)(=O)=O)ccc(C(=O)c2c(C3CC3)nn(C)c2OC(=O)c2cnn(C)c2)c1Cl [Compound 70] | – | – | – | – | – | – | – | – | – | 7 (Level 7: above 70% growth inhibition rate) | 7 (Level 7: above 70% growth inhibition rate) | 10 | 10 | 10 | 10 | 3 (Level 3: above 20% growth inhibition rate) | 3 (Level 3: above 20% growth inhibition rate) | 0 | –
